Data from USRE38132E1, “Phenylpyrrolidines, phenylimidazolidines,3-phenyl-1,3-oxizolidines and 3-phenyl-1,3-thiazolidines and their use in the treatment of inflammatory disease” (Boehringer Ingelheim Pharmaceuticals, Inc., priority 1997, dated 2003).
pIC50, pKd: −log10 of the molar value. Read-outs that look alike come from different tables or passages of the source.

Columns and labels:
[1] = tested on: LFA-1 dependent aggregation of JY cells; assay: JY cell homotypic aggregation assay (PMA-stimulated); type: cell-based, human
Source text: This aggregation can be enhanced by the addition of phorbol esters. […] Thus, the extent of LFA-1-dependent binding may be determined by assessing the extent of spontaneous or phorbol ester-dependent aggregate formation.
An agent which interferes with LFA-1 -dependent aggregation can be identified through the use of an assay capable of determining whether the agent interferes with either spontaneous, or phorbol ester-dependent aggregation of Epstein-Barr virus transformed cells. It is preferable to employ cells of the JY cell line (Terhost, L; et aL, Proc. Natl. Acad. Sci. USA, 1976, 73, 910) for the homotypic aggregation assay. This assay, capable of measuring LFA-1 dependent aggregation, may be employed to identify agents which act as antagonists to the LFA-1 dependent aggregation. Such agents may act by impairing the ability of either LFA-1 or ICAM-1 to mediate aggregation. Thus, agents may be examined to directly determine if they are antagonists of LFA-1 aggregation.
(§1) Description of Assay Protocol:
JY cells are cultured in RPMI 1640 culture medium supplemented with 10% fetal calf serum and 50 μg/mL gentamycin. The cells are cultured at 37° C. in an atmosphere of 5% CO2 at a relative humidity of 95%. JY cells used in this assay are washed two times with RPMI 1640 medium containing 5 mM HEPES buffer and resuspended to a concentration of 2·10^6 cells/mL. Added to flat-bottomed, 96-well microtiter plates are 50 μL of test compound diluted in complete medium, 50 μL of complete medium with or without purified monoclonal antibodies (negative and positive controls for inhibition, respectively), 50 μL of complete medium containing 200 ng/mL of the phorbol ester phorbol myristate acetate (PMA) and 100 μL of cells at a concentration of 2·10^6 cells/mL in complete medium. This yields a final concentration of […] PMA and 2·10^5 cells/well. Cells are allowed to settle spontaneously, and the degree of aggregation is scored at various time points. […] This procedure has been described by Rothlein, R. R.; et al., J. Exp. Med. 1986, 163, 1132-1149. This paper also reported that antibody to LFA-1 is capable of inhibiting the formation of aggregates.
(§2) Data are reported as the concentration or concentration range (in μM) at which 50% of binding is inhibited.

[2] = tested on: cell bound form of LFA-1 (CD18, CD11a) with ICAM-1, SKW3 cells; assay: Inhibition of SKW3 cell binding to ICAM-1 (PMA-stimulated); type: cell-based, human; conditions: Homo sapiens, read-out: Assay to Detect SKW3 Cells Binding to ICAM IC50
Source text: (§3) Assay to Determine Inhibition of SKW3 cell binding to ICAM-1 vs. Binding to Fibronectin
(§4) This assay is used to test the selective ability of a test compound to antagonize the interaction of a cell bound form of LFA-1 with ICAM-1. The assay uses a human T cell line, SKW3 cells which express CD18, CD11a and other integrins not related to CD18, CD11a and which can be “activated” by phorbol esters. Phorbol esters enhance the affinity of CD18, CD11a for ICAM-1.
(§5) This same lymphocyte line, SKW3, also adheres to fibronectin in the presence of phorbol esters. This adhesion is mediated by membrane proteins independent of the LFA-1/ICAM-1 interaction. The SKW3 cells express another integrin, VLA4, which is the receptor for fibronectin. Therefore, as a preliminary indication of the selectivity of a test compounds to interfere with Leukointegrin/CAM interactions but not other integrin-ligand binding events, a compound can be tested for its ability to antagonize cell bound fibronectin receptor in its interaction with purified fibronectin. Compounds that inhibit this fibronectin adhesion are not specific antagonists of the CD18, CD11a/ICAM-1 binding.
as §1
(§6) Ninety-six well plates are coated with either sICAM-1(40 μg/mL) or fibronectin (100 μg/mL) in Diluting buffer for 1 h at room temperature. Added to the wells are 100 μL of the appropriately diluted test compound or 100 μL of RPMI with 15% fetal bovine serum as a control. SKW3 cells, which express CD18, CD11a and VLA4 (Dustin, M.; et al., J. Exp. Med. 1987, 165, 672-692) are washed and suspended to a concentration of 10^6 cells/mL in RPMI with 15% fetal bovine serum. Immediately before adding the cells to the wells, cells are stimulated with the phorbol ester 12-myristate 13-acetate (PMA) for a final concentration of […]. 100 μL of cells are then added to the wells resulting in a final concentration of […]. The plates are incubated for 2 h at 37° C. Unbound or loosely bound cells are gently washed away with RPMI.
as §2

[3] = tested on: cell bound fibronectin receptor (VLA4) with fibronectin, SKW3 cells; assay: Inhibition of SKW3 cell binding to fibronectin (selectivity counter-assay); type: cell-based, human
Source text: as §3, §4, §5, §1, §6, §2

[4] = biological target: T1, interaction of ICAM-1 with the Leukointegrin CD18/CD11a (LFA-1) (Homo sapiens, UniProt P05107+P20701); assay: Assay to determine inhibition of LFA-1 binding to ICAM-1 (immunopurified LFA-1 on plate-bound sICAM-1, ELISA readout)
T1 construct: endogenous in cells; sICAM-1: made in house, secreted from transfected CHO DUX cells

[5] = SKW3, values marked c: no inhibition observed up to highest dose
[6] = values marked c: no inhibition observed up to highest dose
[7] = values marked e approximated from incomplete dose-response curve
[8] = No inh = no inhibition observed up to highest dose, exact quantification not always possible due to intrinsic toxicity

T1 sequence (P20701 26-1170): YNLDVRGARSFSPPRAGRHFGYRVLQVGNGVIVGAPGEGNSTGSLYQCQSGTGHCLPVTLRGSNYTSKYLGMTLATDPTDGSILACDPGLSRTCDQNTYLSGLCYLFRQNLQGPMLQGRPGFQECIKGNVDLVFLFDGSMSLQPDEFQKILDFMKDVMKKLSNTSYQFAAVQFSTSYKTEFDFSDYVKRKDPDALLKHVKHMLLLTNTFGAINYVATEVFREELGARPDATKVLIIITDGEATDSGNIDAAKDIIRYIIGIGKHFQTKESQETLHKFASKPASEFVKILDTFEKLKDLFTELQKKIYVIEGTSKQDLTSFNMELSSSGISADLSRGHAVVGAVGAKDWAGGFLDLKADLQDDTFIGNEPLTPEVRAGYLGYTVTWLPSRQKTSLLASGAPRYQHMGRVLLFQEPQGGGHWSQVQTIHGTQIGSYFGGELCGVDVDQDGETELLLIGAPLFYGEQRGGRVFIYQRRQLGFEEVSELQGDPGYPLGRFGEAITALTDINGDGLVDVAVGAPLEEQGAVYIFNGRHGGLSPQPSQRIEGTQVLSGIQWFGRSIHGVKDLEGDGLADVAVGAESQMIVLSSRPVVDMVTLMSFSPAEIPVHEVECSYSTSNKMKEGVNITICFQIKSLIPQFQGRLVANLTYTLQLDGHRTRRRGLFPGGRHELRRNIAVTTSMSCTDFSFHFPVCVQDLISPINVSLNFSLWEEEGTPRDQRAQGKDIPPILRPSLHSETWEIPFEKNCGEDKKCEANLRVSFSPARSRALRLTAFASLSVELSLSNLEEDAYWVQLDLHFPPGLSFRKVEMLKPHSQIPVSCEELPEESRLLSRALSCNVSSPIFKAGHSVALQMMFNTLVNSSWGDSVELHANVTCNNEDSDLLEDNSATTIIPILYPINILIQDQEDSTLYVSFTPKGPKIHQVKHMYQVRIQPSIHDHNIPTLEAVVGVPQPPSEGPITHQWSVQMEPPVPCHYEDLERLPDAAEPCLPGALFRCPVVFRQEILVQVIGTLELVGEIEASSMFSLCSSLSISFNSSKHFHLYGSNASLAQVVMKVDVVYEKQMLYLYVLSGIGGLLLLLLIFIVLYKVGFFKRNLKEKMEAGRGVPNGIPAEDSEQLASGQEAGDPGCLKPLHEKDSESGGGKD
T1 sequence (P05107 23-769): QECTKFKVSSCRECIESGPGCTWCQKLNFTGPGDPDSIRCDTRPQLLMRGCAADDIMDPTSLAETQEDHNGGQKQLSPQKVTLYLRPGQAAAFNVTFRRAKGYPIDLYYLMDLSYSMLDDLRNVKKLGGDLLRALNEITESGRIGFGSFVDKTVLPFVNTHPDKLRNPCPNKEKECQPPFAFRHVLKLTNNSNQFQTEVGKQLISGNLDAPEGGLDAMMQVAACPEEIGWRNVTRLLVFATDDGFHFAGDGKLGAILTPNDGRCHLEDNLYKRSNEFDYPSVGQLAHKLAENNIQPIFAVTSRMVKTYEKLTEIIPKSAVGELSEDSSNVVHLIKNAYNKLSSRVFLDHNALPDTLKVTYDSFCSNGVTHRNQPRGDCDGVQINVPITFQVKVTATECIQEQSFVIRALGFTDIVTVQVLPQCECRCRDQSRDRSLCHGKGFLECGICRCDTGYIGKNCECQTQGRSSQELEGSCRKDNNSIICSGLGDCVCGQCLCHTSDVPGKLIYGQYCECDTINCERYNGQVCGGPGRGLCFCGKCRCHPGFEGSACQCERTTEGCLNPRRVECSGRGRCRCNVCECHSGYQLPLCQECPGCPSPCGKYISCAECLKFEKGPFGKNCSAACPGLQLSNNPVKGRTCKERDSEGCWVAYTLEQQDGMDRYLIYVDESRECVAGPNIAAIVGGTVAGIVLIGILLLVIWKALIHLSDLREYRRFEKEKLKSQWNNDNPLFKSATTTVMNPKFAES

## CN1C(=O)N(c2cc(Cl)cc(Cl)c2)C(=O)[C@@]1(C)Cc1ccc([N+](=O)[O-])cc1 [Example 134]
[1]; Homo sapiens
  pIC50: 7.00
SKW3 cells
  Cellular Toxicity Assay MTT LD50: >250 µM
[2]; [5]
  pIC50: 5.82
[3]; [6]
  Assay to Detect SKW3 Cells Binding to FIBRONECTIN IC50: No inh^c
[4]; [7]
  pKd: 7.30

## CC1(Cc2ccc(Br)cc2)OC(=O)N(c2cc(Cl)cc(Cl)c2)C1=O (centres unmarked) [Example 180]
[1]; Homo sapiens
  pIC50: 5.89
SKW3 cells
  Cellular Toxicity Assay MTT LD50: 200 to 400 µM
[2]; [5]
  pIC50: 5.52 to 5.82
[3]; [6]
  Assay to Detect SKW3 Cells Binding to FIBRONECTIN IC50: No inh^c
[4]; [7]
  pKd: 6.72

## CN1C(=S)N(c2cc(Cl)cc(Cl)c2)C(=O)C1(C)Cc1ccc(Br)cc1 (centres unmarked) [Example 80]
[1]; Homo sapiens
  pIC50: 5.49
SKW3 cells
  Cellular Toxicity Assay MTT LD50: >400 µM
[2]; [5]
  pIC50: 5.30
[3]; [6]
  Assay to Detect SKW3 Cells Binding to FIBRONECTIN IC50: No inh^c
[4]; [7]
  pKd: 6.72

## C[C@@]1(Cc2ccc(Br)cc2)C(=O)N(c2cc(Cl)cc(Cl)c2)C(=O)N1CCCCC[N+](C)(C)C [Example 255]
[1]; Homo sapiens
  pIC50: 6.70
SKW3 cells
  Cellular Toxicity Assay MTT LD50: 100 to 200 µM
[2]; SKW3
  pIC50: 6.00
[4]
  pKd: 6.85

## CN1C(=O)N(c2cc(Cl)cc(Cl)c2)C(=O)C1(CCO)Cc1ccc(Br)cc1 (centres unmarked) [Example 244]
[1]; Homo sapiens
  pIC50: 5.66
SKW3 cells
  Cellular Toxicity Assay MTT LD50: 200 to 400 µM
[2]; SKW3
  pIC50: 5.10 to 5.40
[3]; [8]
  Assay to Detect SKW3 Cells Binding to FIBRONECTIN IC50: No inh^c
[4]
  pKd: 5.40

## C[C@@]1(Cc2ccc(Br)cc2)C(=O)N(c2cc(Cl)cc(Cl)c2)C(=O)N1C(=O)[C@H]1CCCN1 [Example 235]
[1]; Homo sapiens
  pIC50: 5.80
SKW3 cells
  Cellular Toxicity Assay MTT LD50: 100 to 200 µM
[2]; SKW3
  pIC50: 5.05
[3]; [8]
  Assay to Detect SKW3 Cells Binding to FIBRONECTIN IC50: No inh^c
[4]
  pKd: 6.48

## C[C@@]1(Cc2ccc(Br)cc2)C(=O)N(c2cc(Cl)cc(Cl)c2)C(=O)N1CCCCCCl [Example 121]
[1]; Homo sapiens
  pIC50: 4.60
SKW3 cells
  Cellular Toxicity Assay MTT LD50: <11 µM
[2]; [5]
  pIC50: 5.70 to 6.10
[3]; [6]
  Assay to Detect SKW3 Cells Binding to FIBRONECTIN IC50: No inh^c
[4]; [7]
  pKd: 6.68

## C[C@@]1(Cc2ccc(Br)cc2)C(=O)N(c2cc(Cl)cc(Cl)c2)C(=O)N1Cc1ccncc1 [Example 103]
[1]; Homo sapiens
  pIC50: 6.89
SKW3 cells
  Cellular Toxicity Assay MTT LD50: 25 to 50 µM
[2]; [5]
  pIC50: 4.60
[3]; Homo sapiens, SKW3, values marked c: no inhibition observed up to highest dose, read-out: Assay to Detect SKW3 Cells Binding to FIBRONECTIN IC50
  pIC50: < 4.60
[4]; [7]
  pKd: 7.00

## CN1C(=O)N(c2cc(Cl)cc(Cl)c2)C(=O)[C@@]1(C)Cc1ccc(C#N)cc1 [Example 127]
[1]; Homo sapiens
  pIC50: 7.00
SKW3 cells
  Cellular Toxicity Assay MTT LD50: 125 to 250 µM
[2]; [5]
  pIC50: 5.80 to 6.10
[3]; [6]
  Assay to Detect SKW3 Cells Binding to FIBRONECTIN IC50: No inh^c
[4]; [7]
  pKd: 7.30

## CN1C(=O)N(c2cc(Cl)cc(Cl)c2)C(=O)[C@@]1(C)Cc1ccc(-c2cccnc2)cc1 [Example 188]
[1]; Homo sapiens
  pIC50: 7.52
SKW3 cells
  Cellular Toxicity Assay MTT LD50: 56 to 112 µM
[2]; [5]
  pIC50: 6.00 to 6.52
[3]; [6]
  Assay to Detect SKW3 Cells Binding to FIBRONECTIN IC50: No inh^c
[4]; [7]
  pKd: 7.40

## C[C@]1(Cc2ccc(C(=O)c3ccccc3)cc2)NC(=O)N(c2cc(Cl)cc(Cl)c2)C1=O [Example 184]
[1]
  pIC50: 6.52
SKW3 cells
  Cellular Toxicity Assay MTT LD50: 50 to 100 µM
[2]; [5]
  pIC50: 5.82 to 6.10
[3]; [6]
  Assay to Detect SKW3 Cells Binding to FIBRONECTIN IC50: No inh^c
[4]; [7]
  pKd: 6.43

## C[C@]1(Cc2ccc(Br)cc2)NC(=O)N(c2cc(C(F)(F)F)cc(C(F)(F)F)c2)C1=O [Example 35]
[1]; Homo sapiens
  pIC50: 6.10
SKW3 cells
  Cellular Toxicity Assay MTT LD50: 38 to 46 µM
[2]; [5]
  pIC50: 5.00 to 5.30
[3]; [6]
  Assay to Detect SKW3 Cells Binding to FIBRONECTIN IC50: No inh^c
[4]; [7]
  pKd: 7.00

## C[C@@]1(Cc2ccc(Br)cc2)C(=O)N(c2cc(Cl)cc(Cl)c2)C(=O)N1CCCCn1ccnc1 [Example 252]
[1]; Homo sapiens
  pIC50: 6.52
SKW3 cells
  Cellular Toxicity Assay MTT LD50: 17 to 20 µM
[2]; SKW3
  pIC50: 6.10 to 6.40
[3]; [8]
  Assay to Detect SKW3 Cells Binding to FIBRONECTIN IC50: No inh^c
[4]
  pKd: 6.96

## CN1C(=O)N(c2cc(Cl)cc(Cl)c2)C(=O)C1(C)Cc1ccc(C(F)(F)F)cc1 (centres unmarked) [Example 171]
[1]; Homo sapiens
  pIC50: 6.70
SKW3 cells
  Cellular Toxicity Assay MTT LD50: 100 to 200 µM
[2]; [5]
  pIC50: 3.99
[3]; [6]
  Assay to Detect SKW3 Cells Binding to FIBRONECTIN IC50: No inh^c
[4]; [7]
  pKd: 6.74

## C[C@@]1(Cc2ccc(Br)cc2)C(=O)N(c2cc(Cl)cc(Cl)c2)C(=O)N1CCCC[N+](C)(C)C [Example 253]
[1]; Homo sapiens
  pIC50: 6.70
SKW3 cells
  Cellular Toxicity Assay MTT LD50: 100 to 200 µM
[2]; SKW3
  pIC50: 5.70 to 6.00
[4]
  pKd: 7.30

## Cc1ccc(C[C@@]2(C)NC(=O)N(c3cc(Cl)cc(Cl)c3)C2=O)cc1 [Example 119]
[1]; Homo sapiens
  pIC50: 7.30
SKW3 cells
  Cellular Toxicity Assay MTT LD50: >400 µM
[2]; [5]
  pIC50: > 5.52
[3]; [6]
  Assay to Detect SKW3 Cells Binding to FIBRONECTIN IC50: No inh^c

## C[C@@]1(Cc2ccc(Br)cc2)C(=O)N(c2cc(Cl)cc(Cl)c2)C(=O)N1C(=O)C1CCCN1 (some centres unmarked) [Example 234]
[1]; Homo sapiens
  pIC50: 5.80
SKW3 cells
  Cellular Toxicity Assay MTT LD50: 100 to 200 µM
[2]; SKW3
  pIC50: 5.00 to 5.30
[3]; [8]
  Assay to Detect SKW3 Cells Binding to FIBRONECTIN IC50: No inh^c

## C[C@@]1(Cc2ccc(Br)cc2)C(=O)N(c2cc(Cl)cc(Cl)c2)C(=O)N1CCC[N+](C)(C)C [Example 254]
[1]; Homo sapiens
  pIC50: 6.40
SKW3 cells
  Cellular Toxicity Assay MTT LD50: 100 to 200 µM
[2]; SKW3
  pIC50: 5.70 to 6.00
[4]
  pKd: 7.10

## [2H]C([2H])([2H])N1C(=O)N(c2cc(Cl)cc(Cl)c2)C(=O)[C@@]1(C)Cc1ccc(Br)cc1 [Example 109]
[1]; Homo sapiens
  pIC50: 6.40
SKW3 cells
  Cellular Toxicity Assay MTT LD50: 100 to 200 µM
[2]; [5]
  pIC50: 5.22 to 5.52
[3]; [6]
  Assay to Detect SKW3 Cells Binding to FIBRONECTIN IC50: No inh^c
